System: rat platelet aggregation
Experiment: Inhibitory action on rat platelet aggregation in vitro (ADP-induced, platelet-rich plasma)
Type: cell-based
Conditions: SD rat PRP, ADP 2 μmol/L; relative activity from IC50, activity of IC50 value of PGE1 = 100
Description: Experimental Example 2: Evaluation of Inhibitory Action on Rat Platelet Aggregation In Vitro (1) Preparation of Rat Platelet-Rich Plasma In the same manner as in the above-mentioned Experimental Example 1(1), blood samples were collected from the abdominal artery of 8- to 9-week-old male SD rats. PRP was diluted with PPP and the number of platelet was adjusted to 63.2×10^4/μL. (2) Measurement of Platelet Aggregation Ability In the same manner as in the above-mentioned Experimental Example 1(2) except that the final concentration of ADP was 2 μmol/L, the compound of the present invention, prostaglandin E1 (PGE1:positive control substance) or vehicle control was added as a test substance, and the maximum response of aggregation was measured. (3) Evaluation of Platelet Aggregation Inhibitory Action In the same manner as in the above-mentioned Experimental Example 1(3), IC50 values were determined from the aggregation inhibition ratio of the test substance, and the relative activity (%) of each test substance was calculated by defining the activity of IC50 value of PGE1 as 100.

Row | SMILES | Relative activity (%)
1 | CCCCC[C@H](O)/C=C/[C@H]1[C@H](O)CC(=O)[C@@H]1CCCCCCC(=O)O [PGE1, prostaglandin E1, reference compound] | 100
2 | CCC#CC[C@H](C)C(O)/C=C/[C@H]1[C@H](O)CC(=O)[C@@H]1CCCCCCC(=O)OC (stereo partly drawn) [compound (1)-3, methyl ((1R,2R,3R)-3-hydroxy-2-((1E,3RS,4S)-3-hydroxy-4-methylnon-1-en-6-yn-1-yl)-5-oxocyclopentyl)heptanoate] | 2175
3 | CCC#CC[C@H](C)[C@H](O)/C=C/[C@H]1[C@H](O)CC(=O)[C@@H]1CCCCCC(F)(F)C(=O)O [compound (1)-8, 2,2-difluoro-7-((1R,2R,3R)-3-hydroxy-2-((1E,3S,4S)-3-hydroxy-4-methylnon-1-en-6-yn-1-yl)-5-oxocyclopentyl)heptanoic acid] | 817

From US10494338B2, “Prostaglandin derivative” (AGC INC., priority 2016, dated 2019)
